Data set [1] concerns the target T1, human amylin receptor (amylin 3(a) receptor: human calcitonin receptor + RAMP-3) (Homo sapiens, UniProt O60896+P30988).
T1 construct: expressed in transfected cells; host or cells: BHK570
T1 sequence (P30988 25-474): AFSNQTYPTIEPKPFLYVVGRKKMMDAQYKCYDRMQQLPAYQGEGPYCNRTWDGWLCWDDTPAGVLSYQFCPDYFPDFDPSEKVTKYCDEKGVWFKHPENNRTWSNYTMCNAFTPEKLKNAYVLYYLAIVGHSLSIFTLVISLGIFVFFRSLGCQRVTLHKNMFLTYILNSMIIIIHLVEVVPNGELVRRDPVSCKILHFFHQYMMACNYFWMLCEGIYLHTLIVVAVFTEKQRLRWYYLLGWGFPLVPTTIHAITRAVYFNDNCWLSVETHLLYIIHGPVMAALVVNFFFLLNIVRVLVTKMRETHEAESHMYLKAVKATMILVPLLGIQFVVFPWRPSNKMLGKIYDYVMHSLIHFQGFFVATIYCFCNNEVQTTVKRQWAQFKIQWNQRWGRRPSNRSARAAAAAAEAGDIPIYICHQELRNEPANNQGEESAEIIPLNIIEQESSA
T1 sequence (O60896 24-148 partner): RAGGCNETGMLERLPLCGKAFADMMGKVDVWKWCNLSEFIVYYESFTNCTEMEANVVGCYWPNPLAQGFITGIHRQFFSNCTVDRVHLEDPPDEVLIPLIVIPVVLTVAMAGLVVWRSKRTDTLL
Description: Assay (II)a functional CRE-luciferase assay, human amylin receptor. In kind it is cell-based. As to conditions: Table 2; BHK amylin 3(a)-receptor/CRE-luc cells.

For data set [2], the target named is T2, human calcitonin receptor (Homo sapiens, UniProt P30988).
T2 construct: expressed in transfected cells; host or cells: BHK570
T2 sequence (P30988 25-474): T1 sequence (P30988 25-474)
Description: Assay (II)a functional CRE-luciferase assay, human calcitonin receptor. In kind it is cell-based. The note with it: Table 7; human calcitonin (CTa) receptor.

Data set [3] can be described thus: Assay (III) ThT fibrillation assay for physical stability. It is filed as physicochemical. In a few lines:
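Freshly prepared formulations, pH-adjusted, with 1 μM ThT; four or eight replicates incubated at 37 °C under 960 rpm orbital shaking. Fluorescence (ex 444/em 485 nm) read every 20 min; […]. Peptide concentration measured by RP-HPLC before and after the run.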

Data set [4] in a line: Assay (IV) determination of solubility. It is filed as physicochemical. In a few lines: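 Stock ~500 nmol/ml in water; 1:1 with 100 mM buffer, pH 3.0–8.0 (glycylglycine ≤5.0, bistrispropane ≥6.0); 18 h RT; spin; HPLC quantitation of soluble polypeptide.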

pEC50: −log10 of the molar value. Converted amounts (≈) assume the structure as drawn. Where two headings read alike, the source gives them in different places. Starred links: 1 amine or outer side, 2 acyl side, 3 side chain; linkers in the order of their positions; H or OH if unused. Positions of bridges follow the written chain, without caps; N, C: chain ends. Residues, ends and D or L forms follow the SMILES beside them. *: point of attachment. C20 diacid = O=C(O)CCCCCCCCCCCCCCCCCCC(=O)*; γGlu = O=C(O)[C@H](CCC(=O)[*:2])N[*:1]

`CC[C@H](C)[C@H](NC(=O)[C@@H]1CCCN1C(=O)CNC(=O)[C@H](Cc1ccccc1)NC(=O)[C@H](CC(N)=O)NC(=O)[C@H](CC(N)=O)NC(=O)[C@H](CO)NC(=O)[C@H](CO)NC(=O)[C@H](Cc1c[nH]cn1)NC(=O)[C@H](Cc1c[nH]cn1)NC(=O)[C@H](CC(C)C)NC(=O)[C@H](Cc1ccccc1)NC(=O)[C@H](CCC(=O)O)NC(=O)[C@H](C)NC(=O)[C@H](CC(C)C)NC(=O)[C@H](CCCCN)NC(=O)[C@H](CCC(N)=O)NC(=O)[C@@H](NC(=O)[C@H](C)NC(=O)[C@@H]1CSSC[C@H](NC(=O)[C@H](CCCCN)NC(=O)CC[C@H](NC(=O)CCCCCCCCCCCCCCCCCCC(=O)O)C(=O)O)C(=O)N[C@@H](CC(N)=O)C(=O)N[C@@H]([C@@H](C)O)C(=O)N[C@@H](C)C(=O)N[C@@H]([C@@H](C)O)C(=O)N1)[C@@H](C)O)C(=O)N[C@@H](CC(C)C)C(=O)N1CCC[C@H]1C(=O)N1CCC[C@H]1C(=O)N[C@H](C(=O)N[C@@H](CC(N)=O)C(=O)N[C@H](C(=O)NCC(=O)N[C@@H](CO)C(=O)N[C@@H](CC(N)=O)C(=O)N[C@H](C(=O)N1CCC[C@H]1C(N)=O)[C@@H](C)O)C(C)C)[C@@H](C)O` [Example 145, N-alpha-[(S)-4-Carboxy-4-(19-carboxynonadecanoylamino)butyryl]-[Lys11,Glu14,His17,Pro37]-pramlintide] ({C20 diacid-γGlu}-KCNTATCATQKLAEFLHHSSNNFGPILPPTNVGSNTP-NH2; disulfide 2-7 (inferred)): the negative-log EC50 (pEC50) in data set [1] is 10.09; in data set [2], 10.08. In addition, the “ThT pH 4.0 lag time” value in data set [3] (Table 8), in data set [3] (Table 9) and in data set [3] (ThT fibrillation assay) was >45 h each time. In data set [3] (ThT fibrillation assay), the “ThT pH 4.0 lag time (h)” value is recorded as >45 h. For the same compound, the solubility at 18 h in data set [4] (bistrispropane buffer, pH 6, pH 6.0, read-out: Solubility pH 6.0) is 178 µM (≈ 776 µg/mL); in data set [4] (bistrispropane buffer, pH 6.5, pH 6.5, read-out: Solubility pH 6.5), > 200 µM; in data set [4] (bistrispropane buffer, pH 7, pH 7.0, 18 hours at room temperature, Table 3, read-out: Solubility pH 7.0) it was > 200 µM; in data set [4] (bistrispropane buffer, pH 7, pH 7.0, Table 8, read-out: Solubility pH 7.0), > 200 µM; in data set [4] (bistrispropane buffer, pH 7, pH 7.0, Table 9, read-out: Solubility pH 7.0), > 200 µM; in data set [4] (bistrispropane buffer, pH 7, pH 7.0, read-out: Solubility pH 7.0), > 200 µM. In addition, the solubility at 18 h in data set [4] (bistrispropane buffer, pH 7.5, pH 7.5, Table 9, read-out: Solubility pH 7.5) was > 200 µM; in data set [4] (bistrispropane buffer, pH 7.5, pH 7.5, read-out: Solubility pH 7.5), > 200 µM; in data set [4] (bistrispropane buffer, pH 8, pH 8.0, read-out: Solubility pH 8.0), > 200 µM; in data set [4] (glycylglycine buffer, pH 3, pH 3.0, read-out: Solubility pH 3.0) it was > 200 µM; in data set [4] (glycylglycine buffer, pH 4, pH 4.0, 18 hours at room temperature, Table 2, read-out: Solubility pH 4.0) it was > 200 µM; in data set [4] (glycylglycine buffer, pH 4, pH 4.0, read-out: Solubility pH 4.0) it was > 200 µM. For the same compound, in data set [4] (glycylglycine buffer, pH 5, pH 5.0, read-out: Solubility pH 5.0), the solubility at 18 h is > 200 µM.

Broadly, the pEC50 is −log10 of the EC50, conventionally taken in molar units. As a reminder, the solubility is the concentration that dissolves in the medium under given conditions.
